Measurements: patent US20260137698A1, “CYCLIN-DEPENDENT KINASE 7 INHIBITORS” (JOINT STOCK COMPANY «BIOCAD», priority 2022, published 2026)
Read-outs that look alike come from different tables or passages of the source.

How the values were obtained:
CDK9/Cyclin K = CDK9/Cyclin K (Homo sapiens, UniProt P50750); assay: Inhibition of CDK9/Cyclin K kinase activity (ADP-Glo); format: biochemical
Procedure, shortened: (§1)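 Kinase preincubated with compound (11 points, 4-fold steps from 50 μM) for 10 minutes at 25° C. in kinase buffer A with DTT, then reacted 40-60 minutes at 25° C. with ATP and CDKtide, Histone H1 or PDKtide substrate. ADP formation read by ADP-Glo luminescence; IC50 from four-parameter fit.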

[1] = tested on: MDA-MB-468 (triple negative breast cancer); assay: Antiproliferative assay on MDA-MB-468 cells (AlamarBlue, 96 h); format: cell-based; settings: Homo sapiens, mean value from several measurements
CDK2/Cyclin A = CDK2/Cyclin A (Homo sapiens, UniProt P24941); assay: Inhibition of CDK2/Cyclin A kinase activity (ADP-Glo); format: biochemical
Procedure, shortened: as §1

[2] = tested on: NCl-H82 (small cell lung cancer); assay: Antiproliferative assay on NCl-H82 cells (AlamarBlue, 120 h); format: cell-based; settings: mean value from several measurements
Experimental: The antiproliferative activity of CDK7 inhibitors according to the present invention was evaluated in a cell test using continuous cell cultures: MDA-MB-468 (triple negative breast cancer, ATCC® HTB-132™) and NCl-H82 (small cell lung cancer, ATCC® HTB-175™) using a viable AlamarBlue dye (Thermo Fisher Scientific Inc, order no. DAL1100). The cells were grown in DMEM (PanEco, order no. C330π) and RPMI-1640 (PanEco, order no. C330π), respectively. The basal growth medium was enriched with L-glutamine at a concentration of 2 mM (PanEco, order no. Φ032) and 10% fetal bovine serum (Gibco, order no. 16140-071). The night before measurement, MDA-MB-468 adherent cells were detached from plastic with a solution of trypsin-EDTA (PanEco, order no. Π039π), the solution was then inactivated by a DMEM complete medium, centrifuged at 1000 RPM (Eppendorf, 5804 R), a suspension of cells was prepared in a DMEM complete medium, introduced into 96-well culture plates (Corning Inc, order no. 3599) at 8×10^3 cells in 100 μl of medium per well. The next day, test compounds were dissolved in DMSO and diluted with a DMEM complete medium to a final concentration ranging from 50 μM to 10 pM. Diluted compounds in a volume of 50 μl were introduced into the plate wells with cells in triplicates (the final concentration of DMSO was no more than 1%) and incubated at 37° C. in an incubator with 5% CO2 for 96 hours. NCl-H82 suspension cell line was prepared on the day of the analysis. 10×10^3 cells in 100 μl of an RPMI-1640 complete medium were added to each well of a 96-well plate. The procedure for sample dilution is as described above. Cells with test compounds were incubated at 37° C. in an incubator with 5% CO2 for 120 hours. Following incubation, […] of AlamarBlue reagent (Thermo Fisher Scientific Inc., order no. DAL1100) was added to the wells, the contents of the plates were stirred in an orbital shaker (Biosan, Latvia), then further incubated for 5.5-6 hours at 37° C. in an incubator with 5% CO2. The number of viable cells was detected using the Infinite M200Pro microplate spectrophotometer (Tecan Group Ltd, Switzerland) by way of measuring a fluorescent signal at an excitation wavelength (λEx) of 540 nm and an emission wavelength (λEm) of 590 nm.
IC50 value was calculated using the Magellan software (Tecan Group Ltd, Switzerland) by approximating experimental points by four-parameter model with the optimization by Levenberg-Marquardt: […]

CDK7/Cyclin H/MNAT1 = CDK7/Cyclin H/MNAT1 (Homo sapiens, UniProt P50613); assay: Inhibition of CDK7/Cyclin H/MNAT1 kinase activity (ADP-Glo); format: biochemical
Chain of CDK7/Cyclin H/MNAT1 (P50613 whole entry): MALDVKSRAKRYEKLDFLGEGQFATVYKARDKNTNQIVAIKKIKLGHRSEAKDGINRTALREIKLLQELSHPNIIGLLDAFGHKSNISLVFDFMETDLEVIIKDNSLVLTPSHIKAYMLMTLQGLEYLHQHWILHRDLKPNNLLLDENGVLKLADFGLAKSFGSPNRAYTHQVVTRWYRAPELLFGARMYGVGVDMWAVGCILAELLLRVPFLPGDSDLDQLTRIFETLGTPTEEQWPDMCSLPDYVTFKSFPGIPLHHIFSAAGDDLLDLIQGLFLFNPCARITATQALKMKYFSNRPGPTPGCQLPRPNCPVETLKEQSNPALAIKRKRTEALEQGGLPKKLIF
Chain of CDK7/Cyclin H/MNAT1 (P51946 whole entry partner): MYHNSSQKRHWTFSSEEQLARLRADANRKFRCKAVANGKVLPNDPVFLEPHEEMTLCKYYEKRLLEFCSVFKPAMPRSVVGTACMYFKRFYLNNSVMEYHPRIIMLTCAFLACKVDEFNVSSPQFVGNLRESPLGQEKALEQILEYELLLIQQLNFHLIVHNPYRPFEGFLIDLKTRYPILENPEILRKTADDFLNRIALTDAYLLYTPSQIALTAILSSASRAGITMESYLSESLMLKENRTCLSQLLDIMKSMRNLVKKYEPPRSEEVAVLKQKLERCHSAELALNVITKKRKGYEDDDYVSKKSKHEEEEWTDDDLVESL
Chain of CDK7/Cyclin H/MNAT1 (P51948 whole entry partner): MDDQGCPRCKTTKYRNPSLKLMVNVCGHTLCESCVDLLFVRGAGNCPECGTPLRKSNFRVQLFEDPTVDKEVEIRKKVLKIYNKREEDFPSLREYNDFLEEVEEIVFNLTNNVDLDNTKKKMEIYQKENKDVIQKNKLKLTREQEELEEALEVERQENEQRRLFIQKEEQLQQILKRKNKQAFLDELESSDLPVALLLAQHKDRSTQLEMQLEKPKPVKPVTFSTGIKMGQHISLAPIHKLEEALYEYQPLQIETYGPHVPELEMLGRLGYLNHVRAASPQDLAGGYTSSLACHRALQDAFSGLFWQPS
Procedure, shortened: as §1

[3] = General cytotoxicity on primary differentiated HepaRG cells (72 h); format: cell-based; settings: human, general toxicity, mean value from several measurements
Procedure, shortened: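 Differentiated HepaRG cells, maintained a week in basal hepatic medium with maintenance/metabolism supplement, were plated at 25×10^3 cells/well overnight. Compounds (200 μM to 0.2 nM) were added for 72 h before viability readout.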

[4] = Passive membrane permeability through PAMPA artificial membrane, pH 7.4; format: in vitro ADME; settings: pH 7.4, 10 μmol, 20 hours at room temperature, mean of multiple measurements, read-out: PAMPA passive permeability Pe
Experimental: Passive membrane permeability of the compounds described in the present invention was determined using the PAMPA (parallel artificial membrane permeability assay) model at pH 7.4.
We used a 96-well plate (Corning® BioCoat® Pre-coated PAMPA Plate System, order no. 353015), composed of acceptor and donor parts with cell membrane-modeling PVDF filter pre-impregnated with a lecithin-phospholipid bilayer. The substance (at a concentration of 10 μmol) in a 0.01 M phosphate buffer with pH 7.4 was introduced into a donor well of the plate, and pure buffer was introduced into an acceptor well; afterwards, the both parts were combined and incubated for 20 hours at room temperature so that the compound was redistributed between the two wells and the membrane. Verapamil (USP, USA, order no. 1711202) and propranolol (MCE LLC, USA, cat. no. HY-B0573/CS-2680) were used as control compounds with high and medium permeability. Samples were analyzed by reversed-phase HPLC with UV detection (Agilent 1260 chromatograph with UV detector) by determining their peak areas in the donor and acceptor wells.
Permeability (Pe, cm/s) and retention factor (R, %) in the lipid bilayer were calculated using the formula:
[formula] [formula] • Co is donor-well concentration of the substance at the initial moment of time t (μM); • CA (t) is acceptor-well concentration of the substance at time t (μM); • Vd is donor-well volume (0.3 ml); • Va is acceptor-well volume (0.15 ml).
[formula] • A is filter area (0.3 cm^2); • t is incubation time (72000 s);

[5] = mean value from several measurements, read-out: IC50 CDK9/Cyclin K
[6] = mean value from several measurements, read-out: IC50 CDK2/Cyclin A
[7] = mean value from several measurements, read-out: IC50 CDK7/Cyclin H/MNAT

Chain of CDK9/Cyclin K (P50750 whole entry): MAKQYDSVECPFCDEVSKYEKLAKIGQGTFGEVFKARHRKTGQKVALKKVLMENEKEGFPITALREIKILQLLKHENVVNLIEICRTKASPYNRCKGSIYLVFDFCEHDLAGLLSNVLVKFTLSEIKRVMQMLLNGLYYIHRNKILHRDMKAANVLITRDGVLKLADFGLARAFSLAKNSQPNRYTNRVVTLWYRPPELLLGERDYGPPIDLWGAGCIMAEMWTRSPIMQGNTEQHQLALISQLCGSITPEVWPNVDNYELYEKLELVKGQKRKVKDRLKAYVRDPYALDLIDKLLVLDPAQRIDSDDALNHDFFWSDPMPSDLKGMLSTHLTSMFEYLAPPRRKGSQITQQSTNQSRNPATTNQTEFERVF
Chain of CDK9/Cyclin K (O75909 whole entry partner): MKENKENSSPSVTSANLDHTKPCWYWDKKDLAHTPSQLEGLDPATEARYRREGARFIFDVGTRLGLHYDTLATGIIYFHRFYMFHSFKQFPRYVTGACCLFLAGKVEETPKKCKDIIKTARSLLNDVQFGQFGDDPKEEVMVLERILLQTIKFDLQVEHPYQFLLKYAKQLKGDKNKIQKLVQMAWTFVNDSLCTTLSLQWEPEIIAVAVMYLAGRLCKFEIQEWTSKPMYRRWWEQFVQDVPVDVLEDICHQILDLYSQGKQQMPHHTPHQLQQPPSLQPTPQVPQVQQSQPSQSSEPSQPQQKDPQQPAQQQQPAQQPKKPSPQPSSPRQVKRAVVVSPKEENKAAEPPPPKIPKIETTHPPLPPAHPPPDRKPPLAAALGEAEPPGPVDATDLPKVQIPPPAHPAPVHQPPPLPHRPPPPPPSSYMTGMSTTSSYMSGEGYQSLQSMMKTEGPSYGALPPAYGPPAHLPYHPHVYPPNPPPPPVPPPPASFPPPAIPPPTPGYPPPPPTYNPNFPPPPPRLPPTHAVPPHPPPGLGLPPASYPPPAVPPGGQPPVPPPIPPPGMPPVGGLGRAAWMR

| SMILES | IC50 (CDK9/Cyclin K; [5]) [µM] | IC50 [1] [µM] | IC50 (CDK2/Cyclin A; [6]) [µM] | IC50 [2] [µM] | IC50 (CDK7/Cyclin H/MNAT1; [7]) [µM] | CC50 at 72 h [3] [µM] | Papp at 20 h, 10 μmol [4] [nm/s] | IC50 (CDK9/Cyclin K; mean of multiple measurement series, ATP 50 μM, read-out: CDK9/Cyclin K IC50) [µM] | IC50 (CDK2/Cyclin A; mean of multiple measurement series, ATP 50 μM, read-out: CDK2/Cyclin A IC50) [µM] | IC50 (CDK7/Cyclin H/MNAT1; mean of multiple measurement series, ATP 10 μM, read-out: CDK7/Cyclin H/MNAT1 IC50) [µM] |
| --- | --- | --- | --- | --- | --- | --- | --- | --- | --- | --- |
| Cn1ccc2c(-c3nc(N[C@H]4CCCNC4)ncc3C(F)(F)F)c[nH]c2c1=O [CDK7_845, 6-methyl-3-(2-{[(3S)-piperidin-3-yl]amino}-5-(trifluoromethyl)pyrimidin-4-yl)-1H,6H,7H-pyrrolo[2,3-c]pyridin-7-one] | 0.005 to 0.05 | < 0.01 | > 0.2 | < 0.01 | < 0.005 | 0.1 to 0.5 | < 10 |  |  |  |
| FC(F)(F)c1cnc(N[C@H]2CCCNC2)nc1-c1c[nH]c(-c2nnnn2C2CC2)c1 [CDK7_1102] | 0.005 to 0.05 | 0.01 to 0.1 | > 0.2 | 0.01 to 0.1 | 0.005 to 0.05 | 0.5 to 2 | 10 to 50 |  |  |  |
| CC1(C)CC[C@H](Nc2ncc(C(F)(F)F)c(-c3c[nH]c4c3CCCN(C3CCCC3)C4=O)n2)CN1 [CDK7_1154, 7-cyclopentyl-3-(2-{[(3S)-6,6-dimethylpiperidin-3-yl]amino}-5-(trifluoromethyl)py-rimidin-4-yl)-1H,4H,5H,6H,7H, 8H-pyrrolo[2,3-c]azepin-8-one] | > 0.2 | 0.01 to 0.1 | > 0.2 | 0.01 to 0.1 | < 0.005 | > 2 | 50 to 100 |  |  |  |
| O=C(Nc1ccc(N2CCOCC2)cc1)c1cc(-c2nc(N[C@H]3CCCNC3)ncc2C(F)(F)F)c[nH]1 [CDK7_838, N-[4-(morpholin-4-yl)phenyl]-4-(2-{[(3S)-piperidin-3-yl]amino}-5-(trifluoromethyl)pyrimidin-4-yl)-1H-pyrrole-2-carboxamide] | 0.05 to 0.2 | 0.1 to 1 | > 0.2 | 0.1 to 1 | 0.005 to 0.05 | 0.5 to 2 |  |  |  |  |
| FC(F)(F)c1cnc(N[C@H]2CCCNC2)nc1-c1c[nH]c(-c2ncccn2)c1 [CDK7_1062, N-[(3S)-piperidin-3-yl]-4-[5-(pyrimidin-2-yl)-1H-pyrrol-3-yl]-5-(trifluoromethyl)py-rimidin-2-amine] | 0.005 to 0.05 | 0.01 to 0.1 | > 0.2 | 0.01 to 0.1 | < 0.005 | 0.1 to 0.5 |  |  |  |  |
| Cn1nnnc1-c1cc(-c2nc(N[C@H]3CCCNC3)ncc2C(F)(F)F)c[nH]1 [CDK7_999, 4-[5-(1-methyl-1H-1,2,3,4-tetrazol-5-yl)-1H-pyrrol-3-yl]-N-[(3S)-piperidin-3-yl]-5-(trifluoromethyl) pyrimidin-2-amine] | 0.005 to 0.05 | 0.01 to 0.1 | > 0.2 | 0.1 to 1 | < 0.005 | 0.5 to 2 | < 10 |  |  |  |
| Cc1nc(-c2cc(-c3nc(N[C@H]4CCCNC4)ncc3C(F)(F)F)c[nH]2)no1 [CDK7_1060, 4-[5-(5-methyl-1,2,4-oxadiazol-3-yl)-1H-pyrrol-3-yl]-N-[(3S)-piperidin-3-yl]-5-(trifluoromethyl)py-rimidin-2-amine] | 0.005 to 0.05 | 0.01 to 0.1 | > 0.2 | 0.01 to 0.1 | < 0.005 | 0.1 to 0.5 | 50 to 100 |  |  |  |
| CC1(C)CC[C@H](Nc2ncc(C(F)(F)F)c(-c3c[nH]c4c3CCCN(C3CCC3)C4=O)n2)CN1 [CDK7_1226, 7-cyclobutyl-3-(2-{[(3S)-6,6-dimethylpiperidin-3-yl]amino}-5-(trifluoromethyl)py-rimidin-4-yl)-1H,4H,5H,6H,7H, 8H-pyrrolo[2,3-c]azepin-8-one] | > 0.2 | 0.01 to 0.1 | > 0.2 | 0.01 to 0.1 | < 0.005 | > 2 | 10 to 50 | 0.76 | 18.6 | 0.0056 |
| CC1(C)CC[C@H](Nc2ncc(C(F)(F)F)c(-c3c[nH]c4c3CCCN(CC3CCCC3)C4=O)n2)CN1 [CDK7_1155, 7-(cyclopentylmeth-yl)-3-(2-{[(3S)-6,6-dimethylpiperidin-3-yl]amino}-5-(trifluoromethyl)py-rimidin-4-yl)-1H,4H,5H,6H,7H, 8H-pyrrolo[2,3-c]azepin-8-one] | > 0.2 | 0.01 to 0.1 | > 0.2 | 0.01 to 0.1 | 0.005 to 0.05 | > 2 | 50 to 100 |  |  |  |
| FC(F)(F)c1cnc(N[C@H]2CCCNC2)nc1-c1c[nH]c(-c2ccccn2)c1 [CDK7_1061, N-[(3S)-piperidin-3-yl]-4-[5-(pyridin-2-yl)-1H-pyrrol-3-yl]-5-(trifluoromethyl)py-rimidin-2-amine] | 0.005 to 0.05 | 0.01 to 0.1 |  | 0.01 to 0.1 | 0.005 to 0.05 | 0.5 to 2 | 10 to 50 |  |  |  |
| CCOC(=O)c1cc(-c2nc(N[C@H]3CCCNC3)ncc2C(F)(F)F)c[nH]1 [CDK7_1020, ethyl 4-(2-{[(3S)-piperidin-3-yl]amino}-5-(trifluoromethyl)py-rimidin-4-yl)-1H-pyrrole-2-carboxylate] | 0.005 to 0.05 | 0.01 to 0.1 | > 0.2 | 0.01 to 0.1 | < 0.005 | > 2 |  |  |  |  |
